pIC50: −log10 of the molar value.
How the values were obtained:
[1] = target: T1, purified recombinant CDC25C enzyme (MBP-CDC25C protein) (Homo sapiens, UniProt P30307); assay: Phosphatase activity of the purified recombinant CDC25C enzyme (OMFP dephosphorylation, fluorescence); assay type: biochemical; conditions: OMFP 500 μM, 4 hours at 30° C., three independent experiments; nested upper bounds; read-out: IC50 for the phosphatase activity of the purified recombinant CDC25-C enzyme
T1 construct: made in house
T1 sequence (P30307 1-473): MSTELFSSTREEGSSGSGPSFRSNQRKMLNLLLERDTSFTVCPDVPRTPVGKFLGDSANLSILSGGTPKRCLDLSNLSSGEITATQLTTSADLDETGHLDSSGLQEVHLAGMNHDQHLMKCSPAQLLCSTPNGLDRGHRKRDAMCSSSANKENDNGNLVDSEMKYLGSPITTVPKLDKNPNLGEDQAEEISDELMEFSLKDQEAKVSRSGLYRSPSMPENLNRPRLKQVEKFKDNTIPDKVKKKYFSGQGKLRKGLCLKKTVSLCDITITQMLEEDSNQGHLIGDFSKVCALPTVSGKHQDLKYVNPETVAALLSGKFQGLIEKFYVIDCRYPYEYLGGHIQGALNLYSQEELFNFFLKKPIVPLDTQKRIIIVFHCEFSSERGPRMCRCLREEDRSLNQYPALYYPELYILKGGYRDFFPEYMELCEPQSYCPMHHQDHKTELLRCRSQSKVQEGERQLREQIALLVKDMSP
Experimental: i) Determination of the Phosphatase Activity of the Purified Recombinant CDC25C Enzyme:
The phosphatase activity of the MBP-CDC25C protein is evaluated through its dephosphorylation of 3-O-methylfluorescein-phosphate (OMFP) to form 3-O-methylfluorescein (OMF), determining the fluorescence of the reaction product at 475 nm. This assay can be used to identify inhibitors of the recombinant CDC25 enzyme. The preparation of the MBP-CDC25C fusion protein is described in the PCT patent application published under the number WO 01/44467.
The reaction is performed in 384-well plates in a final volume of 50 μl. The MBP-CDC25C protein (prepared as described hereinabove) is stored in the following elution buffer: 20 mM Tris-HCl pH 7.4; 250 mM NaCl; 1 mM EDTA; 1 mM dithiothreitol (DTT); 10 mM maltose. It is diluted to a concentration of 60 μM in the following reaction buffer: 50 mM Tris-HCl pH 8.2; 50 mM NaCl; 1 mM DTT; 20% glycerol. The background noise is determined using with the buffer without adding the enzyme. The products are tested at decreasing concentrations from 40 μM. The reaction is initiated by the addition of OMFP solution to a final concentration of 500 μM (prepared immediately before use from a 12.5 mM stock solution in 100% DMSO (Sigma #M2629)). After 4 hours at 30° C. in a disposable 384-well plate, the fluorescence measured at OD 475 nm is read on a Victor^2 plate reader (EGG-Wallac). The concentration that produces 50% inhibition of the enzyme reaction is calculated from three independent experiments. Only the values that fall within the linear part of the sigmoid curve are used for the linear regression analysis.

[2] = tested on: MIA PaCa-2 (human pancreatic carcinoma cells); assay: Anti-proliferative activity, MIA PaCa-2 cells (WST1 colorimetric test); assay type: cell-based; conditions: MIA PaCa-2, 96 h, 96 hours treatment, up to 10 μM, nested upper bounds, read-out: IC50 for proliferation of the MIA PaCa-2 cell lines
Experimental: (§1) ii) Characterisation of Anti-Proliferative Activity:
(§2) By way of an example, the effect of treating two human cell lines MIA PaCa-2 and DU 145 with the compounds of the examples described hereinbefore will be studied. The cell lines DU 145 (human prostate carcinoma cells) and MIA PaCa-2 (human pancreatic carcinoma cells) were obtained from the American Tissue Culture Collection (Rockville, Md., USA). A 96-well plate was inoculated on day 0 with cells in 80 μl of Dulbecco's modified Eagle's medium (Gibco-Brl, Cergy-Pontoise, France) with 10% heat-inactivated foetal calf serum (Gibco-Brl, Cergy-Pontoise, France), 50,000 units/l of penicillin and 50 mg/l of streptomycin (Gibco-Brl, Cergy-Pontoise, France) and 2 mM of glutamine (Gibco-Brl, Cergy-Pontoise, France). The cells were treated on day 1 for 96 hours with increasing concentrations of each test compound up to 10 μM. At the end of this period, cell proliferation is quantified by means of a colorimetric test based on cleavage of the tetrazolium salt WST1 by the mitochondrial dehydrogenases in the viable cells, resulting in formation of formazan (Boehringer Mannheim, Meylan, France). These tests are performed in duplicate with 8 determinations per concentration tested. For each test compound, the values within the linear part of the sigmoid curve were subjected to linear regression analysis and used to estimate the IC50 inhibitory concentration. The products are solubilised in dimethylsulfoxide (DMSO) at a concentration of 10^−2 M and used in culture with a final DMSO concentration of 0.1%.

[3] = tested on: DU 145 (human prostate carcinoma cells); assay: Anti-proliferative activity, DU 145 cells (WST1 colorimetric test); assay type: cell-based; conditions: DU-145, 96 h, 96 hours treatment, up to 10 μM, nested upper bounds, read-out: IC50 for proliferation of the DU 145 cell lines
Experimental: as §1, §2

SMILES: O=c1c(NCCNc2cc(N3CCCC3)nc(N3CCCC3)n2)c(NCc2ccc(Cl)cc2)c1=O [Example 5, 3-[(4-chlorobenzyl)amino]-4-({2-[(2,6-dipyrrolidin-1-ylpyrimidin-4-yl)amino]ethyl}amino)cyclobut-3-ene-1,2-dione]
- pIC50 [1]: ≥ 6.00
- pIC50 [2]: ≥ 5.00
- melting point: 246 to 248 °C
- pIC50 [3]: ≥ 5.00

SMILES: CN(CCNc1cc(N2CCCC2)nc(N2CCCC2)n1)CCNc1c(Nc2ccc(Cl)cc2)c(=O)c1=O [Example 8, 3-[(4-chlorophenyl)amino]-4-({2-[{2-[(2,6-dipyrrolidin-1-ylpyrimidin-4-yl)amino]ethyl}(methyl)amino]ethyl}amino)cyclobut-3-ene-1,2-dione]
- pIC50 [1]: ≥ 5.30
- pIC50 [2]: ≥ 5.00
- melting point: 144 to 146 °C
- pIC50 [3]: ≥ 5.00

SMILES: O=c1c(NCCNc2cc(N3CCCC3)nc(N3CCCC3)n2)c(Nc2ccc(Cl)c(C(F)(F)F)c2)c1=O [Example 10, 3-{[4-chloro-3-(trifluoromethyl)phenyl]amino}-4-({2-[(2,6-dipyrrolidin-1-ylpyrimidin-4-yl)amino]ethyl}amino)cyclobut-3-ene-1,2-dione]
- pIC50 [1]: ≥ 4.82
- pIC50 [2]: ≥ 5.00
- melting point: 216 to 218 °C
- pIC50 [3]: ≥ 5.00

SMILES: O=c1c(NCCNc2cc(N3CCCC3)nc(N3CCCC3)n2)c(Nc2cc(F)cc(F)c2)c1=O [Example 15, 3-[(3,5-difluorophenyl)amino]-4-({2-[(2,6-dipyrrolidin-1-ylpyrimidin-4-yl)amino]ethyl}amino)cyclobut-3-ene-1,2-dione]
- pIC50 [1]: ≥ 6.00
- melting point: 192 to 194 °C
- pIC50 [3]: ≥ 5.00

SMILES: O=c1c(NCCNc2cc(N3CCCC3)nc(N3CCCC3)n2)c(Nc2cccc(Cl)c2)c1=O [Example 17, 3-[(3-chlorophenyl)amino]-4-({2-[(2,6-dipyrrolidin-1-ylpyrimidin-4-yl)amino]ethyl}amino)cyclobut-3-ene-1,2-dione]
- pIC50 [1]: ≥ 5.30
- pIC50 [2]: ≥ 5.00
- melting point: 209 to 211 °C
- pIC50 [3]: ≥ 5.00

SMILES: COc1ccc(Nc2c(NCCNc3cc(N4CCCC4)nc(N4CCCC4)n3)c(=O)c2=O)cc1 [Example 18, 3-({2-[(2,6-dipyrrolidin-1-ylpyrimidin-4-yl)amino]ethyl}amino)-4-[(4-methoxyphenyl)amino]cyclobut-3-ene-1,2-dione]
- pIC50 [1]: ≥ 6.00
- pIC50 [2]: ≥ 5.00
- melting point: 235 to 237 °C
- pIC50 [3]: ≥ 5.00

SMILES: CC(=O)c1ccc(Nc2c(NCCNc3cc(N4CCCC4)nc(N4CCCC4)n3)c(=O)c2=O)cc1 [Example 19, 3-[(4-acetylphenyl)amino]-4-({2-[(2,6-dipyrrolidin-1-ylpyrimidin-4-yl)amino]ethyl}amino)cyclobut-3-ene-1,2-dione]
- pIC50 [1]: ≥ 6.00
- pIC50 [2]: ≥ 5.00
- melting point: 186 to 188 °C
- pIC50 [3]: ≥ 5.00

SMILES: COc1cccc(Nc2c(NCCNc3cc(N4CCCC4)nc(N4CCCC4)n3)c(=O)c2=O)c1 [Example 20, 3-({2-[(2,6-dipyrrolidin-1-ylpyrimidin-4-yl)amino]ethyl}amino)-4-[(3-methoxyphenyl)amino]cyclobut-3-ene-1,2-dione]
- pIC50 [1]: ≥ 5.30
- pIC50 [2]: ≥ 5.00
- melting point: 205 to 207 °C
- pIC50 [3]: ≥ 5.00

SMILES: CN(Cc1ccc(Nc2c(NCCNc3cc(N4CCCC4)nc(N4CCCC4)n3)c(=O)c2=O)cc1)C(=O)OC(C)(C)C [Example 21, tert-butyl (4-{[2-({2-[(2,6-dipyrrolidin-1-ylpyrimidin-4-yl)amino]ethyl}amino)-3,4-dioxocyclobut-1-en-1-yl]amino}benzyl)methylcarbamate]
- pIC50 [1]: ≥ 6.00
- pIC50 [2]: ≥ 5.00
- pIC50 [3]: ≥ 5.00

SMILES: O=c1c(NCCNc2cc(N3CCCC3)nc(N3CCCC3)n2)c(Nc2ccc(C3CCCCC3)cc2)c1=O [Example 23, 3-[(4-cyclohexylphenyl)amino]-4-({2-[(2,6-dipyrrolidin-1-ylpyrimidin-4-yl)amino]ethyl}amino)cyclobut-3-ene-1,2-dione]
- pIC50 [1]: ≥ 5.30
- pIC50 [2]: ≥ 5.00
- melting point: 218 to 220 °C
- pIC50 [3]: ≥ 5.00

SMILES: CCCc1ccc(Nc2c(NCCNc3cc(N4CCCC4)nc(N4CCCC4)n3)c(=O)c2=O)cc1 [Example 24, 3-({2-[(2,6-dipyrrolidin-1-ylpyrimidin-4-yl)amino]ethyl}amino)-4-[(4-propylphenyl)amino]cyclobut-3-ene-1,2-dione]
- pIC50 [1]: ≥ 6.00
- pIC50 [2]: ≥ 5.00
- pIC50 [3]: ≥ 5.00

SMILES: CC(C)(C)OC(=O)NCc1ccc(Nc2c(NCCNc3cc(N4CCCC4)nc(N4CCCC4)n3)c(=O)c2=O)cc1 [Example 25, tert-butyl (4-{[2-({2-[(2,6-dipyrrolidin-1-ylpyrimidin-4-yl)amino]ethyl}amino)-3,4-dioxocyclobut-1-en-1-yl]amino}benzyl)carbamate]
- pIC50 [1]: ≥ 6.00
- pIC50 [2]: ≥ 5.00
- melting point: 176 to 180 °C
- pIC50 [3]: ≥ 5.00

SMILES: O=c1c(NCCNc2cc(N3CCCC3)nc(N3CCCC3)n2)c(Nc2ccc3c(c2)OCO3)c1=O [Example 26, 3-(1,3-benzodioxol-5-ylamino)-4-({2-[(2,6-dipyrrolidin-1-ylpyrimidin-4-yl)amino]ethyl}amino)cyclobut-3-ene-1,2-dione]
- pIC50 [1]: ≥ 6.00
- pIC50 [2]: ≥ 5.00
- melting point: 180 to 190 °C
- pIC50 [3]: ≥ 5.00

SMILES: CC(C)(C)OC(=O)NCCc1ccc(Nc2c(NCCNc3cc(N4CCCC4)nc(N4CCCC4)n3)c(=O)c2=O)cc1 [Example 29, tert-butyl [2-(4-{[2-({2-[(2,6-dipyrrolidin-1-ylpyrimidin-4-yl)amino]ethyl}amino)-3,4-dioxocyclobut-1-en-1-yl]amino}phenyl)ethyl]carbamate]
- pIC50 [1]: ≥ 6.00
- pIC50 [2]: ≥ 5.00
- melting point: 216 to 218 °C
- pIC50 [3]: ≥ 5.00

SMILES: O=c1c(NCCNc2cc(N3CCCC3)nc(N3CCCC3)n2)c(Nc2ccc(C(F)(F)F)cc2)c1=O [Example 32, 3-({2-[(2,6-dipyrrolidin-1-ylpyrimidin-4-yl)amino]ethyl}amino)-4-{[4-(trifluoromethyl)phenyl]amino}cyclobut-3-ene-1,2-dione]
- pIC50 [1]: ≥ 6.00
- melting point: > 250 °C
- pIC50 [3]: ≥ 5.00

SMILES: O=c1c(NCCNc2cc(N3CCCC3)nc(N3CCCC3)n2)c(Nc2ccc([N+](=O)[O-])cc2)c1=O [Example 34, 3-({2-[(2,6-dipyrrolidin-1-ylpyrimidin-4-yl)amino]ethyl}amino)-4-[(4-nitrophenyl)amino]cyclobut-3-ene-1,2-dione]
- pIC50 [1]: ≥ 6.00
- pIC50 [3]: ≥ 5.00

SMILES: O=c1c(NCCNc2cc(N3CCCC3)nc(N3CCCC3)n2)c(Nc2ccc(Cl)c(F)c2)c1=O [Example 36, 3-[(4-chloro-3-fluorophenyl)amino]-4-({2-[(2,6-dipyrrolidin-1-ylpyrimidin-4-yl)amino]ethyl}amino)cyclobut-3-ene-1,2-dione]
- pIC50 [1]: ≥ 6.00
- pIC50 [3]: ≥ 5.00
